Results published in US20140303092A1 (CHIMERIX, INC., priority 2011, published 2014).

Assay: Study HDP-CDV-201: safety and tolerability (adverse events, laboratory abnormalities, discontinuations)
Format: in vivo, human (adult allogeneic HSCT recipients)
Conditions: 200 mg BIW
Description: Clinical Studies of HDP-CDV were performed and described in detail in the following Examples. For example, HDP-CDV-201 is a placebo-controlled, dose-escalating trial in HSCT CMV (R+) recipients, evaluating the ability of HDP-CDV to prevent or control CMV infection was carried out. Five cohorts were established in which participants or subjects received either placebo or the HDP-CDV orally, in doses ranging from 40 mg weekly (QW) to 200 mg twice weekly (BIW). Subjects who were post-HSCT were enrolled at the time of engraftment and randomized to HDP-CDV or placebo (3 to 1 ratio) and received blinded therapy until approximately 100 day post-transplantation. HDP-CDV doses were 40 mg QW, 100 mg QW, 200 mg QW, 200 mg BIW and 100 mg BIW. Escalation to the next dose was decided by the data monitoring committee after review of the safety data from the previous Cohort. Subjects who developed CMV disease or CMV infection requiring pre-emptive therapy with local standard of care were discontinued from blinded therapy and followed for 4 weeks. Subjects who completed treatment with blinded therapy were followed for 8 weeks post-therapy.
Data from Study HDP-CDV-201 also provided characterization of the safety and tolerability profile of HDP-CDV when administered for the prevention or control of CMV infection in high risk (R^+) post-HSCT adult subjects.
The Safety population (SAFETY) included all randomized subjects who took at least one dose of study treatment. This population was used to summarize safety outcomes based on the treatment actually received, in cases where a subject was treated contrary to the randomization schedule.
The safety and tolerability profile of HDP-CDV, including subject demographics and Baseline characteristics; the AE profile; and laboratory abnormalities of interest were analyzed in the cohorts followed in this investigation.
Subjects completing the treatment period received a full course of study medication; those completing the entire study attended visits through 8 weeks of follow up. Subjects who discontinued treatment may have done so for protocol specified reasons (e.g. development of clinically significant CMV infection requiring preemptive treatment with excluded anti-CMV medications) or for other reasons (e.g., withdrawal, adverse events, loss to follow-up). The disposition of subjects in Study HDP-CDV-201 during the double-blind, placebo-controlled treatment period (through Week 11) is listed by dosing Cohort in TABLE 23.
Adverse events were examined by severity to ensure that all safety signals were identified in this study population. Because of the frequency of events in HSCT recipients, particular attention was given to evaluation of Grade 3 […], 4 (severe), and 5 (fatal) adverse events.
Only those preferred terms for which at least one Grade 3 or higher event was experienced in any treatment group are listed. Cytomegalovirus-related AEs are excluded from this analysis.
HDP-CDV is a lipid conjugate of CDV. Because CDV is known to have adverse effects on renal function and bone marrow, decreased GFR and persistent neutropenia were identified as AEs of special interest. Key renal and hematological (TABLE 30) laboratory parameters were measured and listed below by Study HDP-CDV-201 treatment groups. TABLE 30 includes abnormal levels of serum creatinine, neutrophils, platelets, WBCs, and hemoglobin and includes data at Screening and during the treatment period.
A common metric for unit based dosing of medications is by weight (mg/kg). When the distribution of weights was examined for all subjects participating in the study, the median was 78 kg and the lower 25th percentile weight was approximately 65 kg, which translates to a cut-off of ˜3 mg/kg for a 200 mg total weekly dose. Based upon this approach, a cut-off of 3 mg/kg was used to assess the frequency of diarrhea and associated GI AEs reported for the subjects in Cohorts 3 or 4a (TABLE 40).

## CCCCCCCCCCCCCCCCOCCCOP(=O)(O)COC(CO)Cn1ccc(N)nc1=O (stereo not drawn) [HDP-CDV]
  TEAE Abdominal pain, Grade 3: 0
  TEAE Abdominal pain, Grade 4: 0
  TEAE Abdominal pain, Grade 5: 0
  TEAE Acute GVHD, Frequency: 24 (80.0%)
  TEAE Acute GVHD, Grade 2: 8 (26.6%)
  TEAE Acute GVHD, Grade 3: 10 (30.0%)
  TEAE Acute GVHD, Grade 4: 2 (6.7%)
  TEAE Acute GVHD, Grade 5: 3 (10.0%)
  TEAE Arthralgias, Frequency: 1 (3.3%)
  TEAE Arthralgias, Grade 2: 1 (3.3%)
  TEAE Arthralgias, Grade 3: 0
  TEAE Arthralgias, Grade 4: 0
  TEAE Arthralgias, Grade 5: 0
  TEAE Back Pain, Frequency: 3 (10.0%)
  TEAE Back Pain, Grade 2: 1 (3.3%)
  TEAE Back Pain, Grade 3: 0
  TEAE Back Pain, Grade 4: 0
  TEAE Back Pain, Grade 5: 0
  TEAE Decreased appetite, Frequency: 5 (16.7%)
  TEAE Decreased appetite, Grade 2: 4 (13.3%)
  TEAE Decreased appetite, Grade 3: 0
  TEAE Decreased appetite, Grade 4: 0
  TEAE Decreased appetite, Grade 5: 0
  TEAE Diarrhea, Frequency: 21 (70.0%)
  TEAE Diarrhea, Grade 2: 8 (26.7%)
  TEAE Diarrhea, Grade 3: 11 (36.7%)
  TEAE Diarrhea, Grade 4: 0
  TEAE Diarrhea, Grade 5: 0
  TEAE Fatigue, Frequency: 0
  TEAE Fatigue, Grade 2: 0
  TEAE Fatigue, Grade 3: 0
  TEAE Fatigue, Grade 4: 0
  TEAE Fatigue, Grade 5: 0
  TEAE GGT Increased, Frequency: 3 (10.0%)
  TEAE GGT Increased, Grade 2: 0
  TEAE GGT Increased, Grade 3: 1 (3.3%)
  TEAE GGT Increased, Grade 4: 1 (3.3%)
  TEAE GGT Increased, Grade 5: 0
  TEAE Generalized oedema, Frequency: 3 (10.0%)
  TEAE Generalized oedema, Grade 2: 0
  TEAE Generalized oedema, Grade 3: 2 (6.7%)
  TEAE Generalized oedema, Grade 4: 0
  TEAE Generalized oedema, Grade 5: 0
  TEAE Hyperbilirubinaemia, Frequency: 5 (16.7%)
  TEAE Hyperbilirubinaemia, Grade 2: 1 (3.3%)
  TEAE Hyperbilirubinaemia, Grade 3: 0
  TEAE Hyperbilirubinaemia, Grade 4: 1 (3.3%)
  TEAE Hyperbilirubinaemia, Grade 5: 0
  TEAE Hyperglycaemia, Frequency: 8 (26.7%)
  TEAE Hyperglycaemia, Grade 2: 5 (16.7%)
  TEAE Hyperglycaemia, Grade 3: 2 (6.7%)
  TEAE Hyperglycaemia, Grade 4: 0
  TEAE Hyperglycaemia, Grade 5: 0
  TEAE Hyperkalemia, Frequency: 3 (10.0%)
  TEAE Hyperkalemia, Grade 2: 1 (3.3%)
  TEAE Hyperkalemia, Grade 3: 1 (3.3%)
  TEAE Hyperkalemia, Grade 4: 0
  TEAE Hyperkalemia, Grade 5: 0
  TEAE Hypocalcaemia, Frequency: 3 (10.0%)
  TEAE Hypocalcaemia, Grade 2: 1 (3.3%)
  TEAE Hypocalcaemia, Grade 3: 1 (3.3%)
  TEAE Hypocalcaemia, Grade 4: 0
  TEAE Hypocalcaemia, Grade 5: 0
  TEAE Hypokalaemia, Frequency: 5 (16.7%)
  TEAE Hypokalaemia, Grade 2: 1 (3.3%)
  TEAE Hypokalaemia, Grade 3: 1 (3.3%)
  TEAE Hypokalaemia, Grade 4: 0
  TEAE Hypokalaemia, Grade 5: 0
  TEAE Hyponatraemia, Frequency: 2 (6.7%)
  TEAE Hyponatraemia, Grade 2: 0
  TEAE Hyponatraemia, Grade 3: 0
  TEAE Hyponatraemia, Grade 4: 0
  TEAE Hyponatraemia, Grade 5: 0
  TEAE LFT Abnormal, Frequency: 3 (10.0%)
  TEAE LFT Abnormal, Grade 2: 1 (3.3%)
  TEAE LFT Abnormal, Grade 3: 1 (3.3%)
  TEAE LFT Abnormal, Grade 4: 0
  TEAE LFT Abnormal, Grade 5: 0
  TEAE Leukocytosis, Frequency: 3 (10.0%)
  TEAE Leukocytosis, Grade 2: 1 (3.3%)
  TEAE Leukocytosis, Grade 3: 0
  TEAE Leukocytosis, Grade 4: 0
  TEAE Leukocytosis, Grade 5: 0
  TEAE Nausea, Frequency: 11 (36.7%)
  TEAE Nausea, Grade 2: 6 (20.0%)
  TEAE Nausea, Grade 3: 1 (3.3%)
  TEAE Nausea, Grade 4: 0
  TEAE Nausea, Grade 5: 0
  TEAE Neutropenia, Frequency: 4 (13.3%)
  TEAE Neutropenia, Grade 2: 0
  TEAE Neutropenia, Grade 3: 1 (3.3%)
  TEAE Neutropenia, Grade 4: 2 (6.7%)
  TEAE Neutropenia, Grade 5: 0
  TEAE Pneumonia, Frequency: 1 (3.3%)
  TEAE Pneumonia, Grade 2: 0
  TEAE Pneumonia, Grade 3: 1 (3.3%)
  TEAE Pneumonia, Grade 4: 0
  TEAE Pneumonia, Grade 5: 0
  TEAE Pyrexia, Frequency: 2 (6.7%)
  TEAE Pyrexia, Grade 2: 0
  TEAE Pyrexia, Grade 3: 0
  TEAE Pyrexia, Grade 4: 0
  TEAE Pyrexia, Grade 5: 0
  TEAE Renal Failure, Frequency: 0
  TEAE Renal Failure, Grade 2: 0
  TEAE Renal Failure, Grade 3: 0
  TEAE Renal Failure, Grade 4: 0
  TEAE Renal Failure, Grade 5: 0
  TEAE Staphylococcal Bacteremia, Frequency: 1 (3.3%)
  TEAE Staphylococcal Bacteremia, Grade 2: 0
  TEAE Staphylococcal Bacteremia, Grade 3: 1 (3.3%)
